Laboratory results published in patent US4863969A, “Treatment of premalignant lesions and certain malignant tumors” (priority 1985, dated 1989).
Read-outs that look alike come from different tables or passages of the source.

Tests used:
[1] = tested on: squamous metaplasia of the vaginal epithelium; experiment: Antimetaplastic activity in ovarectomized rats (hormone-induced squamous metaplasia, vaginal smear); assay type: in vivo, female Holtzmann rats; conditions: for Relative activity (antimetaplastic): all-trans vitamin A acid = 100%; for Antimetaplastic effect (average effective / protective dosage): oral, read 2 days after administration, area method of Behrens and Karber
Protocol: (C) The antimetaplastic activity of compound Ia was determined in rats according to the following method. Female Holtzmann rats weighing approximately 100 g were ovarectomized under Thiogenal narcosis after an adaptation period of 8 days and were used in the experiment after a further 14 days. In each case two animals were placed in a cage and had free access to feed which contained approximately 2000 IU of analytically determined vitamin A. Prior to the oral administration of the test compound the animals were treated subcutaneously each day for 6 successive days with the hormone mixture of 1 μg of estradiol benzoate and 250 μg of testosterone propionate dissolved in 0.1 ml of sesame oil. The parenteral hormone administration led to the formation of a clear granular stage in the vaginal smear, i.e. a squamous metaplasia. 2 days after the oral administration of the test substance the result of the reaction was again read off on the vaginal epithelium. The area method according to Behrens and Karber was employed to calculate the average effective dosages.

[2] = cited from earlier work
[3] = Triglyceride / lipid value in blood plasma of rats; assay type: in vivo, albino rats
Protocol: In order to detect this activity a dosage of compound Ia was administered five times per dosage to 5 male and 5 female albino rats weighing approximately 150 g by means of a probang within 2 days in intervals of in each case 18 and 6 hours. 18 hours after the last application 1-1,2 ml of blood plasma were removed retroorbitally from the experimental animals. The triglyceride value was determined by enzymatic cleavage of the triglyceride with subsequent determination of the resulting glycerine (colour reaction) by means of Periodchrom triglyceride GPO-PAP.

[4] = tested on: transplantable chondrosarcoma of the rat; experiment: Activity on the transplantable chondrosarcoma of the rat; assay type: in vivo, albino rats; conditions: 400 mg/kg p.o.
Protocol: (B) The activity of compond Ia on tumors was, furthermore, determined on the transplantable chondrosarcoma of the rat according to the following method. The solid tumor of a donor animal was finely minced and suspended in phosphate-buffered sodium chloride solution. 0.5 ml of the 30% tumor suspension was implanted subcutaneously into albino rats. […] Each treatment group embraced 7 rats. Suspensions of compound Ia in arachis oil were administered orally five times per week for 4 weeks. The tumor areas were determined on days 1, 15 and 29. The largest (D) and the smallest (d) diameter of the tumors were determined with the aid of a vernier caliper and the product D·d was determined. The change in this area size was calculated in percentages.

[5] = tested on: chemically-induced breast tumors; experiment: Prevention of chemically-induced (dimethyl-benz(a)anthracene) breast tumors in female rats; assay type: in vivo, female Sprague-Dawley rats; conditions: in feed, 11 weeks
Protocol: (A) The activity of compound Ia with respect to the prevention of chemically-induced breast tumors was determined according to the following procedure. Female Sprague-Dawley rats were used in this experiment. The experimental animals were kept under temperature-controlled and light-controlled conditions and had free access to drinking water and feed. At the age of 50 days 15 mg of dimethyl-benz(a)anthracene dissolved in arachis oil were administered to each rat by means of a probang. The treatment with compound Ia began 1 day after the administration of the carcinogen. The body weight of the experimental animals was recorded and the tumors were palpated weekly and measured with a vernier caliper. The volumes were calculated according to the formula D/2·d^2 in which D represents the larger diameter of the tumor ellipsoid and d represents the smaller diameter of the tumor ellipsoid. After 11 weeks the experiment was terminated and evaluated. In this experiment there were used in addition to 30 control animals, which received exclusively normal feed, the following three groups of experimental animals:
1. 33 rats to which were administered daily 30 mg/kg of compound Ia mixed with the feed.
2. 36 rats to which were administered daily 90 mg/kg of compound Ia mixed with the feed.
3. 33 rats to which were administered daily 270 mg/kg of compound Ia mixed with the feed.
The feed mixture was adjusted weekly according to the body weight and the total food intake.

[6] = tested on: Trachea (rats)/hyperplasia induced by dimethylbenzanthracene; experiment: Chemically-induced precancerous tissue changes in trachea organ culture (dimethylbenzanthracene-induced hyperplasia); assay type: cell-based; conditions: Rattus norvegicus, read-out: Mitotic index, relative to dimethylbenzanthracene control; for activity at 1 µM: 10^-6 M; for activity at 0.1 µM: 10^-7 M; for activity at 0.01 µM: 10^-8 M; for activity at 0.001 µM: 10^-9 M
Protocol: (§1) (D) The activity of compound Ia on chemically-induced precancerous tissue changes was, furthermore, determined in vitro according to the following method. In this experiment prostate glands of mice and trachea of rats cultivated in organ cultures served as the experimental models. In tissues of organ cultures carcinogenic substances bring about after a short period precancerous changes in the form hyperplasias as well as metaplasias and dysplasias. Retinoids, which are administered simultaneously with the carcinogenic compounds or after these, prevent the hyperplasia or metaplasia and dysplasia or even cause these to regress.
(§2) The prostate glands consist of alveoli lined with one row of secretory cells and separated by a thin connective tissue. They were removed from mice aged 3-5 months and cut into lobules of approximately 1.5×1.5×2.0 mm. At least six of these lobules were placed on filter paper and transferred on a metal lattice into small culture chambers. Two of these culture chambers were enclosed in a Petri dish lined with a moist filter paper. The culture chambers were filled with nutrient medium up to the height of the lattice so that the explants were moistened well with the nutrient medium, but were not immersed in this. At the nutrient medium there was used customary Medium 199 supplemented by the addition of 15% serum from newly born calves. The carcinogen (3-methylcholanthrene) was added to this prior to the incubation in a concentration of 4-5 μg/ml of nutrient medium. The cultures were then incubated at 37.5° C. During the incubation they were kept in a Macintosh flask which was gassed with a mixture of 5% CO2 +95% oxygen. In a first series of experiments the carcinogen and compound Ia were combined and the tissue was cultivated for 10-12 days. In a second series the explants were pre-treated with the carcinogen for 10-12 days and thereafter placed in a nutrient medium, which only contained compound Ia, for 4-7 days. The concentration of compound Ia lay in the range of 10^-9 to 10^-6 Mol.
Trachea of rats are cultivated in the same manner and treated with dimethylbenzanthracene as the carcinogen. The mitotic index serves as the parameter of the hyperplasia. With retinoid the mitotic index and the hyperplasias, respectively, are smaller. The results are compiled in Tables IV (prostate) and V (trachea).

[7] = tested on: Prostate (mouse)/hyperplasia induced by methylcholanthrene; experiment: Chemically-induced precancerous tissue changes in prostate gland organ culture (methylcholanthrene-induced hyperplasia); assay type: cell-based; conditions: read-out: Hyperplastic alveoli, relative to methylcholanthrene control; for activity at 1 µM: 10^-6 M; for activity at 0.1 µM: 10^-7 M; for activity at 0.01 µM: 10^-8 M; for activity at 0.001 µM: 10^-9 M
Protocol: as §1, §2
The activity of compound Ia is quantified by counting the normal and hyperplastic alveoli in sections of the explant. The results are expressed in percentages of hyperplastic alveoli of the total number of alveoli, for example 120 hyperplastic alveoli out of a total of 200 correspond to 60%. In explants treated with retinoids the percentage is usually small. […] The percentage of hyperplastic alveoli is reduced to 20/60=33%.

[8] = Tolerability and toxicity; assay type: in vivo; conditions: given intraperitoneally and given orally
[9] = Rydell et al. 1982; Kistler 1981; Loeliger et al. 1980; cited from earlier work
[10] = simultaneous treatment, dimethylbenzanthracene (mitotic index 2.6) = 100%
[11] = subsequent treatment, dimethylbenzanthracene (mitotic index 3.1) = 100%
[12] = simultaneous treatment, methylcholanthrene (47% hyperplastic alveoli) = 100%
[13] = subsequent treatment, methylcholanthrene (65% hyperplastic alveoli) = 100%

## C/C(=C\c1ccccc1)c1ccc2c(c1)C(C)(C)CCC2(C)C [Compound Ia, 1,2,3,4-tetrahydro-1,1,4,4-tetramethyl-6-[(E)-alpha-methylstyryl]naphthalene]
[1]
  Relative activity (antimetaplastic): 66.6%
  Antimetaplastic effect (average effective / protective dosage): 53.6 µg
[1]; compared with all-trans vitamin A acid
  Epithelium protection effect (=anti-metaplastic effect) reduced by the factor: 0.67
[2]; e.g. manifestations on skin and mucous membranes
  Hypervitaminosis A phenomena: does not exhibit, in particular, any hypervitaminosis A phenomena
[2]; in the therapeutically indicated dosages
  Tolerability / toxic symptoms: well tolerated and that no toxic symptoms appear
[2]; in vivo
  Teratogenicity: non-teratogenic
[2]; skin
  Skin irritation: not irritating to the skin
[3]; as a sole therapeutically active retinoid
  Effect on the lipid value in blood plasma: no increase in the lipid value in blood plasma
[3]; blood plasma
  Lipid-lowering activity: possesses a lipid-lowering activity
[3]; female rats, 10 mg/kg by probang, five times within 2 days (control 69 ± 28)
  Triglyceride value in blood plasma: 56 ± 25 mg/100 ml
[3]; female rats, 100 mg/kg by probang, five times within 2 days (control 69 ± 28)
  Triglyceride value in blood plasma: 72 ± 18 mg/100 ml
[3]; female rats, 1000 mg/kg by probang, five times within 2 days (control 69 ± 28)
  Triglyceride value in blood plasma: 30 ± 8 mg/100 ml
[3]; male rats, 10 mg/kg by probang, five times within 2 days (control 201 ± 39)
  Triglyceride value in blood plasma: 158 ± 56 mg/100 ml
[3]; male rats, 100 mg/kg by probang, five times within 2 days (control 201 ± 39)
  Triglyceride value in blood plasma: 173 ± 18 mg/100 ml
[3]; male rats, 1000 mg/kg by probang, five times within 2 days (control 201 ± 39)
  Triglyceride value in blood plasma: 41 ± 19 mg/100 ml
[4]; five times per week for 4 weeks, Day 29 (control 5926)
  Tumor area in mm^2, Day 29: 1694 mm^2
[4]; five times per week for 4 weeks, Day 29 vs Day 1 (control +394%)
  Change in tumor area, Day 29: +30%
[4]; five times per week, Day 1
  Tumor area in mm^2, Day 1: 1300 mm^2
[4]; five times per week, Day 15 (control 2880)
  Tumor area in mm^2, Day 15 after the commencement of treatment: 1416 mm^2
[4]; five times per week, Day 15 vs Day 1 (control +140%)
  Change in tumor area, Day 15: +9%
[5]; 30 mg/kg daily oral
  % tumor-bearing rats: 69.6%
  Average number of tumors per rat: 3.0
  Average tumor volume per rat in mm^3: 4904 mm^3
  % tumor-bearing rats, relative to control (100%): 88%
  Average number of tumors per rat, relative to control (100%): 81%
  Average tumor volume per rat, relative to control (100%): 77%
[5]; 90 mg/kg daily oral
  % tumor-bearing rats: 63.8%
  Average number of tumors per rat: 1.8
  Average tumor volume per rat in mm^3: 2879 mm^3
  % tumor-bearing rats, relative to control (100%): 80%
  Average number of tumors per rat, relative to control (100%): 48%
  Average tumor volume per rat, relative to control (100%): 45%
[5]; 270 mg/kg daily oral
  % tumor-bearing rats: 39.3%
  Average number of tumors per rat: 0.7
  Average tumor volume per rat in mm^3: 543 mm^3
  % tumor-bearing rats, relative to control (100%): 50%
  Average number of tumors per rat, relative to control (100%): 18%
  Average tumor volume per rat, relative to control (100%): 9%
[6]; [10]
  activity at 1 µM: 54%
  activity at 0.1 µM: 46%
  activity at 0.01 µM: 46%
  activity at 0.001 µM: 104%
[6]; [11]
  activity at 1 µM: 45%
  activity at 0.1 µM: 70%
  activity at 0.01 µM: 74%
  activity at 0.001 µM: 75%
[7]; [12]
  activity at 1 µM: 25%
  activity at 0.1 µM: 46%
  activity at 0.01 µM: 60%
  activity at 0.001 µM: 90%
[7]; [13]
  activity at 1 µM: 54%
  activity at 0.1 µM: 94%
  activity at 0.01 µM: 98%
  activity at 0.001 µM: 100%

## CC1=C(/C=C/C(C)=C/C=C/C(C)=C/C(=O)O)C(C)(C)CCC1 [all-trans vitamin A acid, reference compound]
[1]
  Relative activity (antimetaplastic): 100%
  Antimetaplastic effect (average effective / protective dosage): 35.7 µg

## CC(=Cc1ccccc1)c1ccc2c(c1)C(C)(C)CCC2(C)C [compound of formula I, 1,2,3,4-tetrahydro-1,1,4,4-tetramethyl-6-(alpha-methylstyryl)naphthalene]
[8]
  Toxicity: relatively non-toxic
[9]
  Biological activity in preliminary screening tests: biologically inactive
